The structures appear in SMILES notation. Read-outs that look alike come from different tables or passages of the source.

One experiment deals with T1, human PRMT1 (Homo sapiens, UniProt Q99873).
T1 construct: GST-tagged PRMT1; made in house; host or cells: High Five insect cells (baculovirus)
Kind of experiment: biochemical. An excerpt:
General Materials. S-adenosylmethionine (SAM), S-adenosylhomocysteine (SAH), bicine, Tween20, dimethylsulfoxide (DMSO), bovine skin gelatin (BSG), and Tris(2-carboxyethyl)phosphine hydrochloride solution (TCEP) were purchased from Sigma-Aldrich at the highest level of purity possible. ^3H-SAM was purchase from American Radiolabeled Chemicals with a specific activity of 80 Ci/mmol. 384-well streptavidin Flashplates were purchased from PerkinElmer.
Substrates. Peptide representative of human histone H4 residues 36-50 was synthesized with an N-terminal linker-affinity tag motif and a C-terminal amide cap by 21st Century Biochemicals. The peptide was purified by high-performance liquid chromatography (HPLC) to greater than 95% purity and confirmed by liquid chromatography mass spectrometry (LC-MS). The sequence was Biot-Ahx-[…]-amide (SEQ ID NO.:1).
Molecular Biology: Full-length human PRMT1 isoform 1 (NM_001536.5) transcript clone was amplified from an HEK 293 cDNA library, incorporating flanking 5′ sequence encoding a FLAG tag ([…]) (SEQ ID NO.:2) fused directly to Met 1 of PRMT1. The amplified gene was subcloned into pFastBacI (Life Technologies) modified to encode an N-terminal GST tag and a TEV cleavage sequence
Protein Expression. Recombinant baculovirus were generated according to Bac-to-Bac kit instructions (Life Technologies). Protein over-expression was accomplished by infecting exponentially growing High Five insect cell culture at 1.5×10^6 cell/ml with 1:100 ratio of virus. Infections were carried out at 27° C. for 48 hours, harvested by centrifugation, and stored at −80° C. for purification.
Protein Purification. […] GST-tagged PRMT1 was eluted with 50 mM Tris, 2 mM glutathione, pH 7.8, dialysed in buffer A and concentrated to 1 mg/mL. The purity of recovered protein was 73%. Reference: Wasilko, D. J. and S. E. Lee: “TIPS: titerless infected-cells preservation and scale-up” Bioprocess J., 5 (2006), pp. 29-32.
General Procedure for PRMT1 Enzyme Assays on Peptide Substrates. The assays were all performed in a buffer consisting of 20 mM Bicine (pH=7.6), 1 mM TCEP, 0.005% BSG, and 0.002% Tween 20, prepared on the day of use. Compounds in 100% DMSO (1 ul) were spotted into a polypropylene 384-well V-bottom plates (Greiner) using a Platemate Plus outfitted with a 384-channel head (Thermo Scientific). DMSO (1 ul) was added to Columns 11, 12, 23, 24, rows A-H for the maximum signal control and 1 ul of SAH, a known product and inhibitor of PRMT1, was added to columns 11, 12, 23, 24, rows I-P for the minimum signal control. A cocktail (40 ul) containing the PRMT1 enzyme was added by Multidrop Combi (Thermo-Fisher). The compounds were allowed to incubate with PRMT1 for 30 min at room temperature, then a cocktail (10 ul) containing SAM and peptide was added to initiate the reaction (final volume=51 ul). The final concentrations of the components were as follows: PRMT1 was 0.5 nM, ^3H-SAM was 200 nM, non-radiolabeled SAM was 1.5 uM, peptide was 20 nM, SAH in the minimum signal control wells was 1 mM, and the DMSO concentration was 2%. The assays were stopped by the addition of non-radiolabeled SAM (10 ul) to a final concentration of 300 uM, which dilutes the ^3H-SAM to a level where its incorporation into the peptide substrate is no longer detectable. 50 ul of the reaction in the 384-well polypropylene plate was then transferred to a 384-well Flashplate and the biotinylated peptides were allowed to bind to the streptavidin surface for at least 1 hour before being washed once with 0.1% Tween20 in a Biotek EL×405 plate washer. The plates were then read in a PerkinElmer TopCount plate reader to measure the quantity of ^3H-labeled peptide bound to the Flashplate surface, measured as disintegrations per minute (dpm) or alternatively, referred to as counts per minute (cpm).
Where dpm=disintegrations per minute, cmpd=signal in assay well, and min and max are the respective minimum and maximum signal controls. […]

In experiment [1] the test system is RKO cells, mono-methyl arginine. Kind of experiment: RKO Methylation Assay (In Cell Western for mono-methyl arginine). The format is cell-based. Particulars: Homo sapiens. The text has this:
RKO adherent cells were purchased from ATCC (American Type Culture Collection), Manassas, Va., USA. DMEM/Glutamax medium, penicillin-streptomycin, heat inactivated fetal bovine serum, 0.05% trypsin and D-PBS were purchased from Life Technologies, Grand Island, N.Y., USA. Odyssey blocking buffer, 800CW goat anti-rabbit IgG (H+L) antibody, and Licor Odyssey infrared scanner were purchased from Licor Biosciences, Lincoln, Nebr., USA. Mono-methyl arginine antibody was purchased from Cell Signaling Technology, Danvers, Mass., USA. Methanol was purchased from VWR, Franklin, Mass., USA. 10% Tween 20 was purchased from KPL, Inc., Gaithersburg, Md., USA. DRAQ5 was purchased from Biostatus Limited, Leicestershire, UK.
RKO adherent cells were maintained in growth medium (DMEM/Glutamax medium supplemented with 10% v/v heat inactivated fetal bovine serum and 100 units/mL penicillin-streptomycin) and cultured at 37° C. under 5% CO2.
Cell Treatment, in Cell Western (ICW) for Detection of Mono-Methyl Arginine and DNA Content. […] Compound (100 nL) from a 96-well source plate was added directly to 384 well cell plate. Plates were incubated at 37° C., 5% CO2 for 72 hours. After three days of incubation, plates were brought to room temperature outside of the incubator for ten minutes and blotted on paper towels to remove cell media. 50 μL of ice cold 100% methanol was added directly to each well and incubated for 30 min at room temperature. After 30 min, plates were transferred to a Biotek EL406 plate washer and washed 2 times with 100 μL per well of wash buffer (1×PBS). Next 60 μL per well of Odyssey blocking buffer (Odyssey Buffer with 0.1% Tween 20 (v/v)) were added to each plate and incubated 1 hour at room temperature. Blocking buffer was removed and 20 μL per well of primary antibody was added (mono-methyl arginine diluted 1:200 in Odyssey buffer with 0.1% Tween 20 (v/v)) and plates were incubated overnight (16 hours) at 4° C. Plates were washed 5 times with 100 μL per well of wash buffer. […] The plates were washed 5 times with 100 μL per well wash buffer then 2 times with 100 μL per well of water. Plates were allowed to dry at room temperature then imaged on the Licor Odyssey machine which measures integrated intensity at 700 nm and 800 nm wavelengths. Both 700 and 800 channels were scanned.
Calculations: First, the ratio for each well was determined by:
Each plate included fourteen control wells of DMSO only treatment (minimum activation) as well as fourteen control wells for maximum activation treated with 20 μM of a reference compound. The average of the ratio values for each control type was calculated and used to determine the percent activation for each test well in the plate. Reference compound was serially diluted three-fold in DMSO for a total of nine test concentrations, beginning at 20 μM. Percent activation was determined and EC30 curves were generated using triplicate wells per concentration of compound.

[2] abbreviates: biochemical evaluation, peptide substrate, read-out: PRMT1 IC50.
The mark [3] stands for this setting: single experiment or average of multiple experiments, read-out: PRMT1 biochemical evaluation (numerical).
Setting [4] is: RKO, 72 h, read-out: RGG ICW EC30.
The mark [5] stands for this setting: In Cell Western EC30, RKO cells, 72 hours, single experiment or average of multiple experiments, read-out: RGG ICW.
[6] abbreviates: In Cell Western, RKO cells, 72 hours, read-out: RGG ICW EC30.

T1 sequence (Q99873 other isoform, or with tags, fused parts or gaps): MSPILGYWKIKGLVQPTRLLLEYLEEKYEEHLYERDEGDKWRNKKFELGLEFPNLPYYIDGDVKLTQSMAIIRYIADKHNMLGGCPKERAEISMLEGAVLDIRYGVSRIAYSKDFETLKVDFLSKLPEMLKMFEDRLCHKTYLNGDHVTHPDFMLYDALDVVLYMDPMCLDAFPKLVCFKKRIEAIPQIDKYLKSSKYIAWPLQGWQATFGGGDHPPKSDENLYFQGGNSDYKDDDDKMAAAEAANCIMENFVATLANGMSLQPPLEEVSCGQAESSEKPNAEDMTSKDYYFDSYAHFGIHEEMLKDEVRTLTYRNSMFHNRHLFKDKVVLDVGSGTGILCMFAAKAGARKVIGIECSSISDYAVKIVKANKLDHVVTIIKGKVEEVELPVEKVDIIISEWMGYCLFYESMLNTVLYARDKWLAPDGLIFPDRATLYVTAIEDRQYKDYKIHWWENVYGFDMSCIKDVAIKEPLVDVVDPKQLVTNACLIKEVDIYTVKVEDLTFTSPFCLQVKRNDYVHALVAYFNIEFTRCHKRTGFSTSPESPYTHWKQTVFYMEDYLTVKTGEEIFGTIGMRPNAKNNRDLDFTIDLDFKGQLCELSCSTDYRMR

For the compound `CNCCN(C)Cc1nn(C)c2ccc(OCc3ccc(C#N)cc3)cc12` [Compound 32], the values for the IC50 at human PRMT1 (setting [2]) and on human PRMT1 (setting [3]) were 101 to 1000 nM and 73.9 nM, respectively. Also, the EC30 in experiment [1] (RKO, 72 h, read-out: RGG ICW) is 8900 nM; in experiment [1] (setting [4]), 3010 to 12000 nM.
In the same order, the values of `CNCCN(C)Cc1n[nH]c2ccc(OC3CCOCC3)cc12` [Compound 29, N^1,N^2-dimethyl-N^1-((5-((tetrahydro-2H-pyran-4-yl)oxy)-1H-indazol-3-yl)methyl)ethane-1,2-diamine] are below 100 nM, 28.2 nM, 5040 nM and 3010 to 12000 nM.
For `CNCCN(C)Cc1c2cc(OCc3ccc(C#N)cc3)ccc2nn1C(C)C` [Compound 34], the values for the IC50 on human PRMT1 (setting [2]) and at human PRMT1 (setting [3]) were 3010 to 10000 nM and 182 nM, respectively. Also, the EC30 in experiment [1] (RKO, 72 h, read-out: RGG ICW) is above 20000 nM; in experiment [1] (setting [4]) it was above 12000 nM.
As to `CNCCN(C)Cc1n[nH]c2ccc(Oc3ccc(C#N)cc3)cc12` [Compound 37], the IC50 on human PRMT1 (setting [2]) is 1010 to 3000 nM; at human PRMT1 (setting [3]), 6420 nM. The EC30 is above 20000 nM in experiment [1] (setting [5]) and above 12000 nM in experiment [1] (setting [6]).
Taken in the same sequence, the figures for `CC(C)COc1ccc2[nH]nc(CN(C)CCN)c2c1` [Compound 2, N1-((5-iso-butoxy-1H-indazol-3-yl)methyl)-N1-methylethane-1,2-diamine] were below 100 nM, 21 nM, 4210 nM and 3010 to 12000 nM.
In the case of `CNCCN(C)Cc1n[nH]c2ccc(OCc3ccc(C#N)cc3)cc12` [Compound 13], the figures for the IC50 at human PRMT1 (setting [2]) and on human PRMT1 (setting [3]) were below 100 nM and 86.9 nM, respectively. Further, the results for the EC30 in experiment [1] (setting [5]) and in experiment [1] (setting [6]) were 3820 nM and 3010 to 12000 nM, respectively.
In the same order, the values of `CNCCN(C)Cc1n[nH]c2ccc(OC(C)Cc3ccccc3)cc12` (stereo not shown) [Compound 9] are below 100 nM, 10.8 nM, 3430 nM and 3010 to 12000 nM.
Consider `CNCCN(C)Cc1n[nH]c2ccc(OCc3cc[nH]n3)cc12` [Compound 17], for which the IC50 on human PRMT1 (setting [2]) is below 100 nM; on human PRMT1 (setting [3]) it was 51.7 nM. In addition, the EC30 is above 12000 nM in experiment [1] (setting [4]) and 8990 nM in experiment [1] (setting [5]).
Turning to `CNCCN(C)Cc1n[nH]c2ccc(OCC(C)c3ccccc3)cc12` (stereo not shown) [Compound 19], the IC50 on human PRMT1 (setting [2]) was below 100 nM; on human PRMT1 (setting [3]) it was 15.9 nM. The values for the EC30 in experiment [1] (setting [5]) and in experiment [1] (setting [6]) were 680 nM and below 3000 nM, respectively.
Take `CNCCN(C)Cc1n[nH]c2ccc(OCCc3ccccc3)cc12` [Compound 7]: the figures for the IC50 at human PRMT1 (setting [2]) and on human PRMT1 (setting [3]) were below 100 nM and 6.6 nM, respectively. Moreover, the EC30 in experiment [1] (setting [5]) was 791 nM; in experiment [1] (setting [6]), below 3000 nM.
As for `CNCCN(C)Cc1n[nH]c2ccc(Oc3ccccc3)cc12` [Compound 10, N^1,N^2-dimethyl-N^1-((5-phenoxy-1H-indazol-3-yl)methyl)ethane-1,2-diamine], the IC50 is below 100 nM at human PRMT1 (setting [2]) and 16.2 nM at human PRMT1 (setting [3]). Besides, the results for the EC30 in experiment [1] (setting [5]) and in experiment [1] (setting [6]) were 3830 nM and 3010 to 12000 nM, respectively.
As for `CNCCN(C)Cc1n[nH]c2ccc(Oc3ccc(C(F)(F)F)cc3)cc12` [Compound 39], the IC50 is below 100 nM on human PRMT1 (setting [2]) and 2270 nM on human PRMT1 (setting [3]). In addition, the EC30 in experiment [1] (RKO, 72 h, read-out: RGG ICW) was above 20000 nM; in experiment [1] (setting [4]) it was above 12000 nM.
For `CNCCN(C)Cc1n[nH]c2ccc(OC3CCOC3)cc12` (stereo not shown) [Compound 25, N^1,N^2-dimethyl-N^1-((5-((tetrahydrofuran-3-yl)oxy)-1H-indazol-3-yl)methyl)ethane-1,2-diamine], the IC50 at human PRMT1 (setting [2]) was at most 100 nM; at human PRMT1 (setting [3]) it was 81.9 nM. In addition, the results for the EC30 in experiment [1] (setting [5]) and in experiment [1] (setting [6]) were 2660 nM and below 3000 nM, respectively.
Consider `CNCCN(C)Cc1n[nH]c2ccc(Oc3cccc(C)c3)cc12` [Compound 26], for which the IC50 was below 100 nM at human PRMT1 (setting [2]) and 44 nM on human PRMT1 (setting [3]). Also, the EC30 in experiment [1] (RKO, 72 h, read-out: RGG ICW) is 3070 nM; in experiment [1] (setting [4]), 3010 to 12000 nM.
With `CNCCN(C)Cc1n[nH]c2ccc(Oc3cccc(Cl)c3)cc12` [Compound 27, N^1-((5-(3-chlorophenoxy)-1H-indazol-3-yl)methyl)-N^1,N^2-dimethylethane-1,2-diamine], the results for the IC50 on human PRMT1 (setting [2]) and on human PRMT1 (setting [3]) were below 100 nM and 31.6 nM, respectively. Also, the EC30 in experiment [1] (RKO, 72 h, read-out: RGG ICW) is 4470 nM; in experiment [1] (setting [4]), 3010 to 12000 nM.
As to `CNCCN(C)Cc1n[nH]c2ccc(OCc3ccccn3)cc12` [Compound 12], the IC50 on human PRMT1 (setting [2]) was below 100 nM; on human PRMT1 (setting [3]), 27.2 nM. Also, the EC30 was 6060 nM in experiment [1] (setting [5]) and 3010 to 12000 nM in experiment [1] (setting [6]).
Take `CNCCN(C)Cc1n[nH]c2cccc(OCc3ccccc3)c12` [Compound 21]: the results for the IC50 at human PRMT1 (setting [2]) and on human PRMT1 (setting [3]) were below 100 nM and 13.1 nM, respectively. Moreover, the EC30 in experiment [1] (setting [5]) is 912 nM; in experiment [1] (setting [6]), below 3000 nM.
Take `CNCCN(C)Cc1n[nH]c2ccc(Oc3ccccc3OC)cc12` [Compound 24]: the IC50 was below 100 nM on human PRMT1 (setting [2]) and 12.7 nM at human PRMT1 (setting [3]). Also, the EC30 in experiment [1] (RKO, 72 h, read-out: RGG ICW) was 1930 nM; in experiment [1] (setting [4]), below 3000 nM.
On to `CNCCN(C)Cc1n[nH]c2ccc(OCc3cccc(C#N)c3)cc12` [Compound 14], for which the IC50 was below 100 nM on human PRMT1 (setting [2]) and 23.3 nM on human PRMT1 (setting [3]). Also, the EC30 in experiment [1] (setting [5]) was 4140 nM; in experiment [1] (setting [6]) it was 3010 to 12000 nM.
